Experiments:
Test in all cases: COMPOUND A In Vitro Assay
Type in all cases: cell-based
647-V = conditions: Homo sapiens, Urinary tract, urothelium, TP53 Mutant
Summary of the method: (§1)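 Screening format: high throughput. Agent: RG7112 (MDM2 antagonist). Cells: diverse human cancer lines. Derived value: IC50, with the cut-offs sensitive <=1 and resistant >=10.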

BFTC-905 = conditions: Homo sapiens, Urinary, bladder, TP53 Mutant
Summary of the method: as §1

BT-20 = conditions: Homo sapiens, Breast, mammary gland, TP53 Mutant
Summary of the method: as §1

CAMA-1 = conditions: Homo sapiens, Breast, mammary gland, TP53 Mutant
Summary of the method: as §1

Calu-1 = conditions: Homo sapiens, Lung, TP53 Wild type
Summary of the method: as §1

Capan-1 = conditions: Homo sapiens, Pancreas, TP53 Mutant
Summary of the method: as §1

Capan-2 = conditions: Homo sapiens, Pancreas, TP53 Mutant
Summary of the method: as §1

DU-4475 = conditions: Homo sapiens, Breast, mammary gland, TP53 Wild type
Summary of the method: as §1

ES2 = conditions: Homo sapiens, ES-2, Ovary, TP53 NA
Summary of the method: as §1

HCC1599 = conditions: Homo sapiens, Breast, mammary gland, TP53 Mutant
Summary of the method: as §1

HCC1937 = conditions: Homo sapiens, Breast, TP53 NA
Summary of the method: as §1

HCC38 = conditions: Homo sapiens, Breast, mammary gland, TP53 Mutant
Summary of the method: as §1

HCT116 = conditions: Homo sapiens, HCT-116, Intestine, large, colon, TP53 Wild type
Summary of the method: as §1

HEL = conditions: Homo sapiens, Lymphocyte, peripheral blood, TP53 Mutant
Summary of the method: as §1

HepG2 = conditions: Homo sapiens
Summary of the method: as §1

Hs 578T = conditions: Homo sapiens, Breast, mammary gland, TP53 Mutant
Summary of the method: as §1

IM-9 = conditions: Homo sapiens
Summary of the method: as §1

KG-1a = conditions: Homo sapiens, Bone marrow, TP53 Mutant
Summary of the method: as §1

KHM-1B = conditions: Homo sapiens, Lymphocyte, TP53 Wild type
Summary of the method: as §1

KMS-28BM = conditions: Homo sapiens, Lymphocyte, TP53 Mutant
Summary of the method: as §1

LS513 = conditions: Homo sapiens
Summary of the method: as §1

MC/CAR = conditions: Homo sapiens
Summary of the method: as §1

NCI-H1666 = conditions: Homo sapiens, Lung, TP53 Wild type
Summary of the method: as §1

NCI-H187 = conditions: Homo sapiens, Lung, TP53 Mutant
Summary of the method: as §1

NCI-H1993 = conditions: Homo sapiens, Lung, TP53 Mutant
Summary of the method: as §1

NCI-H2009 = conditions: Homo sapiens, Lung, TP53 Mutant
Summary of the method: as §1

NCI-H2171 = conditions: Homo sapiens, Lung, TP53 Mutant
Summary of the method: as §1

NIH:OVCAR-3 = conditions: Homo sapiens, Ovary, TP53 Mutant
Summary of the method: as §1

RPMI-8226 = conditions: Homo sapiens, Lymphocyte B, peripheral blood, TP53 Mutant
Summary of the method: as §1

RT4 = conditions: Homo sapiens, RT-4, Urinary, bladder, TP53 Wild type
Summary of the method: as §1

SW620 = conditions: Homo sapiens, SW-620, Intestine, large, colon, TP53 Mutant
Summary of the method: as §1

SW837 = conditions: Homo sapiens, Intestine, large, rectum, TP53 Mutant
Summary of the method: as §1

T24 = conditions: Homo sapiens, T-24, Urinary, bladder, TP53 Mutant
Summary of the method: as §1

THP-1 = conditions: Homo sapiens, Blood, TP53 Mutant
Summary of the method: as §1

VCaP = conditions: Homo sapiens, Prostate, TP53 Mutant
Summary of the method: as §1

WiDr = conditions: Homo sapiens, Intestine, large, colon, TP53 Mutant
Summary of the method: as §1

In the case of CCOc1cc(C(C)(C)C)ccc1C1=N[C@@](C)(c2ccc(Cl)cc2)[C@@](C)(c2ccc(Cl)cc2)N1C(=O)N1CCN(CCCS(C)(=O)=O)CC1 [COMPOUND A], the IC50 (647-V) is reported as 17 µM, the IC50 (BFTC-905) is reported as 19 µM and the IC50 (BT-20) is reported as 3.6 µM. For the same molecule, the IC50 (CAMA-1) was 22 µM, the IC50 (Calu-1) was 14 µM and the IC50 (Capan-1) was 20 µM. For the same molecule, the IC50 (Capan-2) was 9.1 µM, the IC50 (DU-4475) was 2.1 µM and the IC50 (ES2) was 3.3 µM. The IC50 (HCC1599) was 12 µM, the IC50 (HCC1937) was 15 µM and the IC50 (HCC38) was 12 µM. The IC50 (HCT116) was 0.5 µM, the IC50 (HEL) was 17 µM and the IC50 (HepG2; HepG2, HepG2, Liver, TP53 Wild type) was 0.18 µM. It also gave an IC50 (HepG2; HepG2, HepG2 cells) of 0.2 µM, an IC50 (Hs 578T) of 8.8 µM and an IC50 (IM-9; IM-9, IM-9, Lymphocyte B, peripheral blood, TP53 Wild type) of 0.14 µM. It also gave an IC50 (IM-9; IM-9, IM-9 cells) of 0.1 µM, an IC50 (KG-1a) of 9 µM and an IC50 (KHM-1B) of 6.9 µM. The IC50 (KMS-28BM) was 9 µM, the IC50 (LS513; LS-513, LS513, Intestine, large, caecum, TP53 Wild type) was 0.49 µM and the IC50 (LS513; LS-513, LS513 cells) was 0.5 µM. It also gave an IC50 (MC/CAR; MC/CAR cells) of 0.7 µM, an IC50 (MC/CAR; MC/CAR, Lymphocyte B, peripheral blood, TP53 Wild type) of 0.69 µM and an IC50 (NCI-H1666) of 13 µM. It also gave an IC50 (NCI-H187) of 15 µM, an IC50 (NCI-H1993) of 7.7 µM and an IC50 (NCI-H2009) of 9.9 µM. It also gave an IC50 (NCI-H2171) of 11 µM, an IC50 (NIH:OVCAR-3) of 17 µM and an IC50 (RPMI-8226) of 6.6 µM. It also gave an IC50 (RT4) of 2.4 µM, an IC50 (SW620) of 9.8 µM and an IC50 (SW837) of 12 µM. It also gave an IC50 (T24) of 21 µM, an IC50 (THP-1) of 9.7 µM and an IC50 (VCaP) of 13 µM. For the same molecule, the IC50 (WiDr) was 8.9 µM.

Source: patent US9657351B2, “MRNA-based gene expression for personalizing patient cancer therapy with an MDM2 antagonist” (Hoffmann-La Roche Inc., priority 2013, dated 2017)
